Laboratory results as given in US9198965B2 (priority 2008, dated 2015).
Read-outs that look alike come from different tables or passages of the source.

Experiments:
[1] = test system: PR/8 virus; test: Splenocyte IFN-γ ELISpot assay, PR/8 vaccine (Example 8); format: in vivo, Balb/C mice; conditions: day 15 post-vaccination; inactivated PR/8; EB 50 μM or 200 μM
[2] = test system: VN/1203 virus; test: Microneutralization assay of sera, suboptimal dose VN/1203 vaccine (Example 5); set-up: species or system Balb/C mice; conditions: mouse, in vivo
[3] = test system: PR/8 virus; test: Influenza-specific neutralizing antibodies in sera, suboptimal dose PR/8 vaccine (Example 6); format: in vivo, Balb/C mice; conditions: day 15 post-vaccination; pooled serum; values <40 negative
[4] = test system: RAW 264.7 macrophages; test: Association of FITC-labeled virus with macrophages by flow cytometry; format: cell-based; conditions: virus treated with 10 μM EB; compared to 0 μM
[5] = test system: VN/1203; format: in vivo, Balb/C mice; conditions: suboptimal dose vaccine
[6] = test system: H5N1 influenza virus; conditions: mouse, in vivo; cited from earlier work
[7] = test system: VN/1203; test: Virus specific IgG ELISA after vaccination with inactivated VN/1203 (Example 3); format: in vivo, Balb/C mice; conditions: 28 days post-vaccination; EB at all concentrations (10 μM, 50 μM, 0.5 mM, 1 mM); i.m., boost day 15
[8] = test system: VN/1203; test: Influenza-specific total IgG, IgG1, IgG2 ELISA after suboptimal dose VN/1203 vaccine (Example 5); set-up: species or system Balb/C mice; conditions: mouse, in vivo
[9] = test system: influenza viruses; conditions: in vitro; cited from earlier work
[10] = test system: influenza virus; conditions: cited from earlier work
[11] = test system: PR/8 virus; test: Sedimentation density profiles (density gradient ultracentrifugation) of peptide-treated virus; set-up: species or system A/PuertoRico/8/34 (PR/8, H1N1); conditions: EB peptide-treated samples (10 μM, 30 μM)
[12] = test system: PR/8 virus; format: in vivo, Balb/C mice; conditions: suboptimal dose PR/8 vaccine
[13] = test system: VN/1203; format: in vivo, Balb/C mice
[14] = test system: VN/1203 virus; format: in vivo, Balb/C mice; conditions: day 15 and 28 post-vaccination; inactivated VN/1203; EB 200 μM

RRKKAAVALLPAVLLALLAP [EB]
IFN-γ levels (IFN-γ secreting splenocytes) [1]: increases | virus neutralizing antibody titers (microneutralization) [2]: negative | influenza-specific neutralizing antibody titers [3]: negative | shift in macrophage association peak of FITC-PR/8 [4]: minimal shift | weight loss ([5]; 200 μM EB, no boost): little to no weight loss | weight loss ([5]; 200 μM EB, with boost): little to no weight loss | score for clinical signs of infection (0-3) ([5]; 200 μM EB, without boost): 1 | survival rate ([5]; EB 50 μM): > 60% | score for clinical signs of infection (0-3) ([5]; peptide 200 μM, with boost): 0 | clinical signs of H5N1 influenza virus infection [6]: prevented clinical signs | survival [6]: increased survival | virus specific IgG titers compared to inactivated virus alone or alum adjuvanated vaccine [7]: increased | total IgG, IgG1, and IgG2 levels versus suboptimal dose of VN/1203 alone [8]: the same | concentrations at which EB inhibits virus replication [9]: ≥ 10 µM | influenza virus attachment to cells [10]: inhibited | HA activity as compared to virus alone [11]: considerably lower | survival rate ([12]; EB 50 μM): 100% | survival rate ([12]; EB 200 μM): 100% | weight change compared to day 0 of challenge ([13]; […], EB 10 μM, 50 μM, 0.5 mM or 1 mM, alum 0.5 mg/ml): weight increase | infectious virus in lungs (TCID50 on MDCK cells) ([13]; […], VN/1203 pretreated with 50 μM or greater amounts of EB): no detectable infectious virus | infectious virus in lungs (TCID50 on MDCK cells) ([13]; day 10, any of the groups vaccinated with inactivated VN/1203 and EB): no detectable infectious virus | IFN-γ levels (IFN-γ secreting splenocytes) [14]: increases

RRKKLPAVLLALLAP [SEQ ID NO: 4 peptide, derivative of EB retaining RRKK tag with 5 amino acid residues removed from the N-terminus]
weight loss ([5]; peptide 200 μM): around 20% | score for clinical signs of infection (0-3) ([5]; peptide 200 μM, with boost): 2
